Numbers after ± are expanded uncertainties.
Experiments:
[1] = Liquid
[2] = xn = mol fraction of the nth substance listed; details: Liquid, x1 = 1

CCCO [propan-1-ol]
mass density [kg/m3], [1]
Details | 100 kPa | 5000 kPa | 10000 kPa | 15000 kPa | 20000 kPa | 25000 kPa | 30000 kPa
303.15 K | 795.6 ± 0.4 | 799.5 ± 0.4 | 803.4 ± 0.5 | 807 ± 0.6 | 810.5 ± 0.7 | 813.9 ± 0.8 | 817.2 ± 0.9
313.15 K | 787.6 ± 0.4 | 791.6 ± 0.5 | 795.7 ± 0.5 | 799.5 ± 0.6 | 803.2 ± 0.7 | 806.7 ± 0.8 | 810.1 ± 0.9
323.15 K | 779.1 ± 0.4 | 783.4 ± 0.5 | 787.7 ± 0.6 | 791.7 ± 0.7 | 795.6 ± 0.7 | 799.3 ± 0.8 | 802.9 ± 0.9
333.15 K | 770.6 ± 0.4 | 775.1 ± 0.5 | 779.6 ± 0.6 | 783.9 ± 0.7 | 787.9 ± 0.8 | 791.8 ± 0.9 | 795.5 ± 1

CCCO [propan-1-ol] + Cc1ccccc1
mass density [kg/m3], [2]
Details | 100 kPa | 5000 kPa | 10000 kPa | 15000 kPa | 20000 kPa | 25000 kPa | 30000 kPa
303.15 K | 795.6 ± 0.4 | 799.5 ± 0.4 | 803.4 ± 0.5 | 807 ± 0.6 | 810.5 ± 0.7 | 813.9 ± 0.8 | 817.2 ± 0.9
313.15 K | 787.6 ± 0.4 | 791.6 ± 0.5 | 795.7 ± 0.5 | 799.5 ± 0.6 | 803.2 ± 0.7 | 806.7 ± 0.8 | 810.1 ± 0.9
323.15 K | 779.1 ± 0.4 | 783.4 ± 0.5 | 787.7 ± 0.6 | 791.7 ± 0.7 | 795.6 ± 0.7 | 799.3 ± 0.8 | 802.9 ± 0.9
333.15 K | 770.6 ± 0.4 | 775.1 ± 0.5 | 779.6 ± 0.6 | 783.9 ± 0.7 | 787.9 ± 0.8 | 791.8 ± 0.9 | 795.5 ± 1

Cc1ccccc1 [toluene]
mass density [kg/m3], [1]
Details | 100 kPa | 5000 kPa | 10000 kPa | 15000 kPa | 20000 kPa | 25000 kPa | 30000 kPa
303.15 K | 857.4 ± 0.3 | 861.3 ± 0.3 | 865.1 ± 0.4 | 868.7 ± 0.4 | 872.3 ± 0.5 | 875.6 ± 0.6 | 878.9 ± 0.6
313.15 K | 848.1 ± 0.3 | 852.1 ± 0.3 | 856.2 ± 0.4 | 860 ± 0.5 | 863.7 ± 0.5 | 867.2 ± 0.6 | 870.7 ± 0.6
323.15 K | 838.6 ± 0.3 | 842.9 ± 0.3 | 847.2 ± 0.4 | 851.2 ± 0.5 | 855.1 ± 0.5 | 858.9 ± 0.6 | 862.5 ± 0.7
333.15 K | 829.2 ± 0.3 | 833.7 ± 0.4 | 838.2 ± 0.4 | 842.5 ± 0.5 | 846.6 ± 0.6 | 850.5 ± 0.6 | 854.3 ± 0.7
